Assay results published in patent US9156831B2, “Chemical compounds” (ASTRAZENECA AB, priority 2013, dated 2015).
pIC50: −log10 of the molar value.

How the values were obtained:
[1] = test system: BT474 xenograft; test: Tumour growth inhibition, BT474 xenograft model; format: in vivo, mouse
Method: BT474 is an estrogen receptor positive breast tumour cell lines with elevated Her2 expression and carries a mutation in the PIK3CA gene (K111N). Female Swiss athymic nude mice (swiss nu/nu-AZUK) were transplanted subcutaneously with human epithelial breast ductal carcinoma cell line BT474c (derived in AZ from BT474-ATCC HTB-20) tumours passaged in mice. Mice were implanted with 0.36 mg 60 day oestrogen pellet (Innovative Research of America) 24 hours prior to cell implantation. 5×10^6 cells in 50% matrigel (BD Bioscience) were injected s.c. on the left flank of the animals.
(§1) Animals were randomised into groups of 10-15 when tumours reached a volume of ˜200-300 mm^3 and treatment commenced. Animals were dosed for 3-4 weeks by peroral route, with compound in a suitable vehicle at defined doses and schedules. Tumours were measured two-three times weekly by caliper and volume of tumours calculated using elliptical formula (pi/6×width×width×length).

[2] = test system: HCC70 xenograft; test: Tumour growth inhibition, HCC70 xenograft model; format: in vivo, mouse; conditions: AZD8186 alone 50 mg/kg BID every day; FIG. 13
Method: HCC70 is breast tumour cell line which is deficient in PTEN gene expression. Female Swiss athymic nude mice (swiss nu/nu—AZUK) were transplanted subcutaneously with the breast ductal epithelial tumour cell line HCC70 (ATCC—CRL2315) cells. 1×10^6 cells in 50% matrigel (BD Bioscience) were injected s.c. on the left flank of the animals.
as §1

[3] = target: PI3K-β (Homo sapiens (Human), UniProt P42338); test: In vitro enzyme inhibition assay (Kinase Glo); format: biochemical; conditions: Test protocol a; mean of replicates
Method: (§2) The inhibition of PI3K-β, PI3K-α, PI3K-γ and PI3K-δ was evaluated in a Kinase Glo based enzyme activity assay using human recombinant enzymes. The assay platform indirectly measured the depletion of ATP after incubation with enzyme, PIP2 substrate, ATP and compound.
(§3) After completion of the enzyme reaction the remaining ATP was used in a secondary enzymatic reaction, where Luciferase converted beetle luciferin into oxyluciferin under the emission of light. A direct relationship existed between the luminescence measured and the ATP remaining in a completed kinase reaction. Therefore, the luminescence was inversely related to the kinase activity.
(§4) Compounds in 100% DMSO were added to assay plates by acoustic dispensing. PI3K enzyme was added in a Tris buffer (50 mM Tris pH7.4, 0.05% CHAPS, 2.1 mM DTT, and 10 mM magnesium chloride) and allowed to preincubate with compound for 20 minutes prior to addition of substrate solution containing PIP2 and ATP. The enzyme reaction was stopped after 80 minutes by the addition of Kinase Glo detection solution containing Lucferin and Luciferase (from Kinase Glo® Plus Luminecent Kinase Assay kit (Promega #V3772). Plates were left for 30 minutes at room temperature then read on a Pherastar Instrument with a standard Luminescence filter block. The final concentration of DMSO, ATP and PIP2 in the assay were, 1%, 8 μM, and 80 μM respectively.
(§5) IC50 values were calculated using a log curve fitting to a non-linear regression fit.

[4] = target: PI3K-δ (Homo sapiens (Human), UniProt O00329); test: In vitro enzyme inhibition assay (Kinase Glo); format: biochemical; conditions: Test protocol a; mean of replicates
Method: as §2, §3, §4, §5

[5] = target: ATR kinase (Homo sapiens (Human), UniProt Q13535); test: Phospho Chk1 (Ser345) in HT29 cells (ATR cell assay); format: cell-based; conditions: Test protocol f, one test replicate only
From the text: ATR (Ataxia Telangiectasia+Rad3-related kinase) is a PI3-kinase-related kinase which phosphorylates multiple substrates on serine or threonine residues in response to DNA damage or replication blocks. Chk1, a downstream protein kinase of ATR, plays a key role in DNA damage checkpoint control. Activation of Chk1 involves phosphorylation of Ser317 and Ser345 (the latter regarded as the preferential target for phosphorylation/activation by ATR).
This was a cell based assay to measure inhibition of ATR kinase, by measuring a decrease in phosphorylation of Chk1 (Ser 345) in HT29 cells, following treatment with compound and the UV mimetic 4NQO (Sigma #N8141). HT29 cells (ECACC #85061109) were seeded into 384 well assay plates (Costar #3712) at a density of 6000 cells/well in 40 μl EMEM medium containing 1% L glutamine and 10% FBS and allowed to adhere overnight. The following morning compounds in 100% DMSO were added to assay plates by acoustic dispensing. After 1 hour incubation at 37° C. and 5% CO2, 40 nl of 3 mM 4NQO in 100% DMSO was added to all wells by acoustic dispensing, except minimum control wells which were left untreated with 4NQO to generate a null response control. Plates were returned to the incubator for a further 1 hour. Then cells were fixed by adding 20 μl of 3.7% formaldehyde in PBS solution and incubating for 20 mins at room temperature. Then 20 μl of 0.1% Triton X100 in PBS was added and incubated for 10 minutes at room temperature, to permeabalise cells. Then the plates were washed once with 50 μl/well PBS, using a Biotek EL405 plate washer.
Phospho-Chk1 Ser 345 antibody (Cell Signalling Technology #2348) was diluted 150 fold in PBS containing 0.05% polysorbate/Tween and 15 μl was added to each well and incubated over night at room temperature. The next morning plates were washed three times with 50 μl/well PBS, using a Biotek EL405 plate washer, and then 20 μl of secondary Ab solution, containing 500 fold diluted Alexa Fluor 488 Goat anti-rabbit IgG (Molecular Probes #A-11008) and 0.002 mg/ml Hoeschst dye (Molecular Probes #H-3570), in PBST, was added. After 2 hours incubation at room temperature, the plates were washed three times with 50 μl/well PBS, using a Biotek EL405 plate washer, and plates were then sealed with black plate seals until read. Plates were read using an ArrayScan VTI instrument, using an XF53 filter with 10× objective. A two laser set up was used to analyse nuclear staining with Hoeschst (405 nM) and secondary antibody staining of pChk1 (488 nM).

[6] = target: PI3K-α (Homo sapiens (Human), UniProt P42336, K111N); test: Phosphorylated AKT (Thr308) in BT474 cells (PI3K-α cell assay); format: cell-based; conditions: Test protocol c, mean of replicates
[7] = target: PI3K-α (Homo sapiens (Human), UniProt P42336); test: In vitro enzyme inhibition assay (Kinase Glo); format: biochemical; conditions: Test protocol a; mean of replicates
Method: as §2, §3, §4, §5

[8] = test system: MCF7 xenograft; test: Tumour growth inhibition, MCF7 xenograft model; format: in vivo, mouse; conditions: olaparib alone 100 mg/kg QD every day; FIG. 12
Method: MCF7 is an estrogen receptor positive breast tumour cell line carrying a mutation in the PIKC3CA gene (E545K). […] SCID mice (AZ UK) were transplanted subcutaneously (s.c.) with human breast adenocarcinoma cell line MCF7 (ICRF London) to determine anti-tumour activity of PI3 kinase inhibitors. Mice were implanted with a 0.5 mg 21 day oestrogen pellet (Innovative Research of America) 24 hours prior to cell implantation. 5×10^6 cells in 50% matrigel (BD Bioscience) were injected s.c. on the left flank of the animals.
as §1

ATR kinase, sequence (Q13535 whole entry): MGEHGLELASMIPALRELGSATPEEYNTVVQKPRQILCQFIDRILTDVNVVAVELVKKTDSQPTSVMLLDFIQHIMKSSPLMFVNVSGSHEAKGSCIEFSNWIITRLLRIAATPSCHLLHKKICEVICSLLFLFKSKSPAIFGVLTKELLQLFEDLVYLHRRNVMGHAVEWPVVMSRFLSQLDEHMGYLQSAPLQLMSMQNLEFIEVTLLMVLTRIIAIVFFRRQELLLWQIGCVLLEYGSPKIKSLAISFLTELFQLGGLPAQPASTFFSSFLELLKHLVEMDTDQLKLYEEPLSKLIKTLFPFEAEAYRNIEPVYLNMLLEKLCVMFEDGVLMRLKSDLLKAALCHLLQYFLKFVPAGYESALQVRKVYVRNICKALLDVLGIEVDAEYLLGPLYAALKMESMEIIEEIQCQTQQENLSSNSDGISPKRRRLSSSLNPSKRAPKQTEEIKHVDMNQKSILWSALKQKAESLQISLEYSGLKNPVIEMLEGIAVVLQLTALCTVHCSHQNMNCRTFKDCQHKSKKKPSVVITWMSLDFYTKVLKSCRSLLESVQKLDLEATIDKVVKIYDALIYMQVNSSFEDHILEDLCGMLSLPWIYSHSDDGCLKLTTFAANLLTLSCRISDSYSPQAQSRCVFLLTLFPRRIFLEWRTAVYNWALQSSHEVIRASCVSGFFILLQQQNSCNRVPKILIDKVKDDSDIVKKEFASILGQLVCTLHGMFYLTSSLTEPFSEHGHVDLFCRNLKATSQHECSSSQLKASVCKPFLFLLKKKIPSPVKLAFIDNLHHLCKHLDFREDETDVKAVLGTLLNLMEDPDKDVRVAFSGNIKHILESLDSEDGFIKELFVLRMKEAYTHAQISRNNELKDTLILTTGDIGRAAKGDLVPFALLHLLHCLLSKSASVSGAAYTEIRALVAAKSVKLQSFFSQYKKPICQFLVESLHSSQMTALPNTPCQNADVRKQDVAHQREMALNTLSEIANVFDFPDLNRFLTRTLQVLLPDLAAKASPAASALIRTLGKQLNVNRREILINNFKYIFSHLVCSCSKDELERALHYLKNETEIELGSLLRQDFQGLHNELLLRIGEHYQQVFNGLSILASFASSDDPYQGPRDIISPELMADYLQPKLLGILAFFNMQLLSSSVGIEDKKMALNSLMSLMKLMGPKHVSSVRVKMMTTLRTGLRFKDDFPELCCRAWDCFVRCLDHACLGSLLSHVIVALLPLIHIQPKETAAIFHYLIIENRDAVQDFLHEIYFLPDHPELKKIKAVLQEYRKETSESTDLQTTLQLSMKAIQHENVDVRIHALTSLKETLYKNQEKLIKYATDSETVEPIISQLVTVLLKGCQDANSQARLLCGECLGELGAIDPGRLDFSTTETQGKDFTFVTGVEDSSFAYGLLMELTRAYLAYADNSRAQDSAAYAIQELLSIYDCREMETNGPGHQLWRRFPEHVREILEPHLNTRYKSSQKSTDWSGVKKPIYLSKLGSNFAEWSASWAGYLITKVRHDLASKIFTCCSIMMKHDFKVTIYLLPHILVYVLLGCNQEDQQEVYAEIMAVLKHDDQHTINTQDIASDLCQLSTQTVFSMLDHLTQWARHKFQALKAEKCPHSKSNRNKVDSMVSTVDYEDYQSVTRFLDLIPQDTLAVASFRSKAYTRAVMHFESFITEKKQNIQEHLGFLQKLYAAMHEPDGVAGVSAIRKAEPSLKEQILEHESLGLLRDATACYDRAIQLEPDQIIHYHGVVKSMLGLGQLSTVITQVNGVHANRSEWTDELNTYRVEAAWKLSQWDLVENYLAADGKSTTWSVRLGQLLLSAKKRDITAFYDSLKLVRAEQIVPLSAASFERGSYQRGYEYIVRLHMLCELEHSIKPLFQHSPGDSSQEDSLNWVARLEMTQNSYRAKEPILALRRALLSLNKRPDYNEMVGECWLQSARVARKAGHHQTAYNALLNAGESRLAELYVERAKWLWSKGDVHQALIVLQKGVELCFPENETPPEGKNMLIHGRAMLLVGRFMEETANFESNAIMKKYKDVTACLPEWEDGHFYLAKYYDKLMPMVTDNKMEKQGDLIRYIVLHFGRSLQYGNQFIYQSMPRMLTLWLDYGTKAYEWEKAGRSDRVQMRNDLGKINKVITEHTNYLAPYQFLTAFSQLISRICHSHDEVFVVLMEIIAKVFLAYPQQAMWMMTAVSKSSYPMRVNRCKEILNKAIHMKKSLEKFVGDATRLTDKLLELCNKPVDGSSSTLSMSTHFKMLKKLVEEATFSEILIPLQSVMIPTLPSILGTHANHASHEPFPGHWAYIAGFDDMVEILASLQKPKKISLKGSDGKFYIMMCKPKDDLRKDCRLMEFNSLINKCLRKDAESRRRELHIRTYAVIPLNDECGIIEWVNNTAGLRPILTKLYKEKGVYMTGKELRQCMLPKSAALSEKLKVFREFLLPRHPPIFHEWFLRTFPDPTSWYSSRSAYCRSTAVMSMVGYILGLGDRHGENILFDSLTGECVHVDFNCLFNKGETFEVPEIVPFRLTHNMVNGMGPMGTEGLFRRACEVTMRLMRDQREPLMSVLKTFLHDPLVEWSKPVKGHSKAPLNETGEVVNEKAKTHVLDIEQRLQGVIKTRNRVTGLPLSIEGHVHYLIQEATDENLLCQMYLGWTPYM
ATR kinase, sequence (Q8WXE1 whole entry partner): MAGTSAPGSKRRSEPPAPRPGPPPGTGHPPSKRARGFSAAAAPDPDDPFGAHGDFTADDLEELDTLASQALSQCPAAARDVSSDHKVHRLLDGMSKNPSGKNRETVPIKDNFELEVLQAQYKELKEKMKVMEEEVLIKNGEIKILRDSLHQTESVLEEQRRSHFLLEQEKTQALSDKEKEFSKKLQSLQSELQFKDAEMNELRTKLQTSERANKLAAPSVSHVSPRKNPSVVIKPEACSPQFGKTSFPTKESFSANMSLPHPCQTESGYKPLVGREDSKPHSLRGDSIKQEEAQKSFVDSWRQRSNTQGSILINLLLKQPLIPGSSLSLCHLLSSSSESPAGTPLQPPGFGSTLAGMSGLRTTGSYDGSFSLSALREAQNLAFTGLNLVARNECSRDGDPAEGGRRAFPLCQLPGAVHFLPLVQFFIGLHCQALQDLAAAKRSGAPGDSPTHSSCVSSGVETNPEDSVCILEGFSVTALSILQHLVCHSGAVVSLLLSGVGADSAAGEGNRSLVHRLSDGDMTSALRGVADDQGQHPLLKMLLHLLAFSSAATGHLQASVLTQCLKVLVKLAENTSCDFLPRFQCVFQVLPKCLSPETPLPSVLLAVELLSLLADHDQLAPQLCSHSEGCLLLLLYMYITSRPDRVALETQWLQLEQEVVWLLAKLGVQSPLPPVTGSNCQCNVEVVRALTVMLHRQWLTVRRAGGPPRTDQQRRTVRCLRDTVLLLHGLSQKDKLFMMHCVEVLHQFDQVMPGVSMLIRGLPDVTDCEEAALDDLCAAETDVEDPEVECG

| Compound | pIC50 [3] | pIC50 [4] | pIC50 [5] | pIC50 [6] | also measured |
| --- | --- | --- | --- | --- | --- |
| NC1(C(=O)N[C@@H](CCO)c2ccc(Cl)cc2)CCN(c2ncnc3[nH]ccc23)CC1 [AZD5363, (S)-4-amino-N-(1-(4-chlorophenyl)-3-hydroxypropyl)-1-(7H-pyrrolo[2,3-d]pyrimidin-4-yl)piperidine-4-carboxamide, reference compound] |  |  |  |  | tumour growth ([1]; AZD5363 alone 100 mg/kg BID, 2 days on/5 days off, vs vehicle, FIG. 10): partially inhibited tumour growth; tumour growth ([1]; AZD5363 alone 170 mg/kg BID, 2 days on/5 days off, vs vehicle, FIG. 9): partially inhibited tumour growth |
| C[C@@H](Nc1cc(F)cc(F)c1)c1cc(C(=O)N(C)C)cc2c(=O)cc(N3CCOCC3)oc12 [AZD8186, 8-((1R)-1-(3,5-difluorophenylamino)ethyl)-N,N-dimethyl-2-morpholino-4-oxo-4H-chromene-6-carboxamide, reference compound] |  |  |  |  | tumour growth [2]: partially inhibited tumour growth |
| C[C@H](CO)C(=O)N1CCC(c2nc(-c3cnc(N)c(-c4nnc(C(C)(C)C)o4)n3)n(C)n2)CC1 [Example 6, (2R)-1-[4-[5-[5-amino-6-(5-tert-butyl-1,3,4-oxadiazol-2-yl)pyrazin-2-yl]-1-methyl-1,2,4-triazol-3-yl]-1-piperidyl]-3-hydroxy-2-methyl-propan-1-one] | 5.47 | > 7.92 | < 4.52 |  |  |
| Cn1nc(C2CCN(C(=O)C(C)(C)O)CC2)nc1-c1cnc(N)c(-c2nnc(C(C)(C)C)o2)n1 [Example 7, 1-[4-[5-[5-amino-6-(5-tert-butyl-1,3,4-oxadiazol-2-yl)pyrazin-2-yl]-1-methyl-1,2,4-triazol-3-yl]-1-piperidyl]-2-hydroxy-2-methyl-propan-1-one] | 5.20 | 7.85 | < 4.52 | 6.38 | pIC50 [7]: 7.43 |
| O=C(c1cc(Cc2n[nH]c(=O)c3ccccc23)ccc1F)N1CCN(C(=O)C2CC2)CC1 [olaparib, 4-[3-(4-cyclopropanecarbonyl-piperazine-1-carbonyl)-4-fluoro-benzyl]-2H-phthalazin-1-one, reference compound] |  |  |  |  | tumour growth [8]: minimal effect on tumour growth; tumour growth ([1]; olaparib alone 100 mg/kg QD every day, FIG. 11): no significant effect on tumour growth |

Now from value to compound, other results behind:

| pIC50 [3] | pIC50 [4] | pIC50 [5] | pIC50 [6] | Compound | also measured |
| --- | --- | --- | --- | --- | --- |
| 5.54 | > 7.92 | < 4.52 |  | C[C@@H](O)CC(=O)N1CCC(c2nc(-c3cnc(N)c(-c4nnc(C(C)(C)C)o4)n3)n(C)n2)CC1 [Example 4, (3R)-1-[4-[5-[5-amino-6-(5-tert-butyl-1,3,4-oxadiazol-2-yl)pyrazin-2-yl]-1-methyl-1,2,4-triazol-3-yl]-1-piperidyl]-3-hydroxy-butan-1-one] |  |
| 5.48 | 7.92 | < 4.52 |  | C[C@H](O)CC(=O)N1CCC(c2nc(-c3cnc(N)c(-c4nnc(C(C)(C)C)o4)n3)n(C)n2)CC1 [Example 5, (3S)-1-[4-[5-[5-amino-6-(5-tert-butyl-1,3,4-oxadiazol-2-yl)pyrazin-2-yl]-1-methyl-1,2,4-triazol-3-yl]-1-piperidyl]-3-hydroxy-butan-1-one] |  |
| 5.82 | 7.92 | < 4.52 | 6.23 | Cn1nc(C2CCN(C(=O)CC(=O)O)CC2)nc1-c1cnc(N)c(-c2nnc(C(C)(C)C)o2)n1 [Example 8, 3-[4-[5-[5-amino-6-(5-tert-butyl-1,3,4-oxadiazol-2-yl)pyrazin-2-yl]-1-methyl-1,2,4-triazol-3-yl]-1-piperidyl]-3-oxo-propanoic acid] | pIC50 [7]: 7.62 |
| 6.19 | > 8.00 |  |  | CCn1nc(C2CCN(C(=O)CC(=O)O)CC2)nc1-c1cnc(N)c(-c2nnc(C(C)(C)C)o2)n1 [Example 9, 3-[4-[5-[5-amino-6-(5-tert-butyl-1,3,4-oxadiazol-2-yl)pyrazin-2-yl]-1-ethyl-1,2,4-triazol-3-yl]-1-piperidyl]-3-oxo-propanoic acid] |  |
|  |  |  | 7.07 | CCn1nc(C2CCN(C(=O)[C@@H](O)CO)CC2)nc1-c1cnc(N)c(-c2nnc(C(C)(C)C)o2)n1 [Example 10, (2S)-1-[4-[5-[5-amino-6-(5-tert-butyl-1,3,4-oxadiazol-2-yl)pyrazin-2-yl]-1-ethyl-1,2,4-triazol-3-yl]-1-piperidyl]-2,3-dihydroxy-propan-1-one] |  |
|  |  |  | 6.96 | CCn1nc(C2CCN(C(=O)[C@H](O)CO)CC2)nc1-c1cnc(N)c(-c2nnc(C(C)(C)C)o2)n1 [Example 11, (2R)-1-[4-[5-[5-amino-6-(5-tert-butyl-1,3,4-oxadiazol-2-yl)pyrazin-2-yl]-1-ethyl-1,2,4-triazol-3-yl]-1-piperidyl]-2,3-dihydroxy-propan-1-one] |  |
